Values of other authors as cited in patent US8193201B2, “Synergistic anti-inflammatory pharmaceutical compositions and related methods using curcuminoids or methylxanthines” (priority 2004, dated 2012).

System: PGE2
Details: value reported in the literature (Fiebich et al.)

## Cn1c(=O)c2c(ncn2C)n(C)c1=O [Caffeine, caffeine]
  median PGE2 inhibitory concentration: 8.2 µg/mL
